The values below come from patent US12331041B2, “GLP-1 receptor agonists and uses thereof” (Pfizer Inc., priority 2018, dated 2025).

Test [1] deals with T1, human GLP-1R (Homo sapiens, UniProt P43220, G168S).
T1 construct: expressed in transfected cells
Briefly: CHO GLP-1R Clone H6 - Assay 1 (HTRF cAMP agonist assay). Format: cell-based. The settings on record: for EC50: CHO Clone H6, high GLP-1R density, cAMP, geometric mean; for Emax: CHO Clone H6, relative to saturating full agonist GLP-1 7-36 (1 μM), arithmetic mean. A digest of the protocol: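 CHO Clone H6 cells stably expressing human GLP-1R (G168S) were plated 48 h, then given compound for 30 min at 37° C in HBSS/0.1% BSA/HEPES with 100 μM IBMX and 1% DMSO. cAMP was measured by HTRF against a standard curve.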

Test [2] has as its target T2, human GLP-1R (Homo sapiens, UniProt P43220, L260F).
T2 construct: expressed in transfected cells; host or cells: CHO Flp-In T-REx, clonal line C6 (pcDNA5-FRT-TO)
Briefly: CHO GLP-1R Clone C6 - Assay 2 (HTRF cAMP agonist assay). The test is classed as cell-based. The following applies: for EC50: CHO clone C6, low GLP-1R density, cAMP, geometric mean; for Emax: CHO clone C6, relative to saturating full agonist GLP-1 (1 μM), arithmetic mean. How it is done: GLP-1R-mediated agonist activity was determined with a cell-based functional assay utilizing an HTRF (Homogeneous Time-Resolved Fluorescence) cAMP detection kit (cAMP HI Range Assay Kit; Cis Bio cat #62AM6PEJ) that measures cAMP levels in the cell. The method is a competitive immunoassay between native cAMP produced by the cells and exogenous cAMP labeled with the dye d2. The tracer binding is visualized by a mAb anti-cAMP labeled with Cryptate. The specific signal (i.e. energy transfer) is inversely proportional to the concentration of cAMP in either a standard or an experimental sample.
The human GLP-1R coding sequence (NCBI Reference Sequence NP_002053.3, including naturally-occurring variant Leu260Phe) was subcloned into pcDNA5-FRT-TO and a clonal CHO cell line stably expressing a low receptor density was isolated using the Flp-In™ T-Rex™ System, as described by the manufacturer (ThermoFisher).
A 1 mL sample of the cell suspension in growth media was counted on a Becton Dickinson ViCell to determine cell viability and cell count per mL. The remaining cell suspension was then adjusted with growth media to deliver 1600 viable cells per well using a Matrix Combi Multidrop reagent dispenser, and the cells were dispensed into a white 384 well tissue culture treated assay plate (Corning 3570). The assay plate was then incubated for 48 h at 37° C. in a humidified environment (95% O2, 5% CO2)
Varying concentrations of each compound to be tested (in DMSO) were diluted in assay buffer [HBSS with Calcium/Magnesium (Lonza/BioWhittaker cat #10-527F)/0.1% BSA (Sigma Aldrich cat #A7409-1L)/20 mM HEPES (Lonza/BioWhittaker cat #17-737E)] containing 100 μM 3-isobutyl-1-methylxanthin (IBMX; Sigma cat #15879). The final DMSO concentration in the compound/assay buffer mixture is 1%.
After 48 h, the growth media was removed from the assay plate wells, and the cells were treated with 20 μL of the serially diluted compound in assay buffer for 30 min at 37° C. in a humidified environment (95% O2, 5% CO2). Following the 30 min incubation, 10 μL of labeled d2 cAMP and 10 μL of anti-cAMP antibody (both diluted 1:20 in cell lysis buffer; as described in the manufacturer's assay protocol) were added to each well of the assay plate. The plates were then incubated at room temperature and after 60 minutes, changes in the HTRF signal were read with an Envision 2104 multi-label plate reader using excitation of 330 nm and emissions of 615 and 665 nm. Raw data were converted to nM cAMP by interpolation from a cAMP standard curve (as described in the manufacturer's assay protocol) and the percent effect was determined relative to a saturating concentration of the full agonist GLP-1 (1 μM) included on each plate. EC50 determinations were made from agonist dose response curves analyzed with a curve fitting program using a 4-parameter logistic dose response equation.

Where a name gives a salt, the structure may show the parent alone.

T2 sequence (P43220 24-463 L260F): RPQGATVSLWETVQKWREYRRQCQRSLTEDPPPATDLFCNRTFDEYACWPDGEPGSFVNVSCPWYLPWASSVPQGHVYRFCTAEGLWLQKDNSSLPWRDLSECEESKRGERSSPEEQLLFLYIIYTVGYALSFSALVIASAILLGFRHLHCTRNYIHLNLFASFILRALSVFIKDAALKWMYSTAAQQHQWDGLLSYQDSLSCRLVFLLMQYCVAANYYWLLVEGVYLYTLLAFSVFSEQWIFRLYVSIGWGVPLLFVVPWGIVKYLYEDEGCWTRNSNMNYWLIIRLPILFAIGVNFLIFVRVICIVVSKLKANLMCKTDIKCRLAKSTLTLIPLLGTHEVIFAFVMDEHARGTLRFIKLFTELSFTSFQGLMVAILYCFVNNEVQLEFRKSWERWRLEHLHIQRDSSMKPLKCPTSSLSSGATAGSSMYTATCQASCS
T1 sequence (P43220 24-463 G168S): as the sequence (P43220 24-463 L260F) above, with G145S, F237L counted along it

A word on the EC50: it is the concentration at which the effect is half-maximal. A word on the Emax: it is the size of the effect at its maximum, as opposed to the concentration needed. In the case of `COCCn1c(CN2CCC(c3cccnc3OCc3ccc(C#N)cc3F)CC2)nc2ccc(C(=O)O)cc21` [Example 9, 2-[(4-{2-[(4-cyano-2-fluorobenzyl)oxy]pyridin-3-yl}piperidin-1-yl)methyl]-1-(2-methoxyethyl)-1H-benzimidazole-6-carboxylic acid, trifluoroacetate salt], at human GLP-1R [1], the concentration giving a half-maximal response (EC50) stood at 28 nM and the Emax was 77%. Moreover, at human GLP-1R [2], it took 700 nM to reach a half-maximal effect (EC50) and the maximal response (Emax) stood at 81%.

As to `Cn1cncc1Cn1c(CN2CCC(c3cccnc3OCc3ccc(Cl)cc3F)CC2)nc2ccc(C(=O)O)cc21` [Example 11, 2-[(4-{2-[(4-chloro-2-fluorobenzyl)oxy]pyridin-3-yl}piperidin-1-yl)methyl]-1-[(1-methyl-1H-imidazol-5-yl)methyl]-1H-benzimidazole-6-carboxylic acid, trifluoroacetate salt], on human GLP-1R [1], it took 1.9 nM to reach a half-maximal effect (EC50) and the maximum response (Emax) was determined as 83%. On human GLP-1R [2], this compound returned an EC50 of 49 nM and an Emax of 100%.

`O=C(O)c1ccc2nc(CN3CCC(c4cccnc4OCc4ccc(F)cc4F)CC3)n(C[C@@H]3CCO3)c2c1` [Example 12, ammonium 2-[(4-{2-[(2,4-difluorobenzyl)oxy]pyridin-3-yl}piperidin-1-yl)methyl]-1-[(2S)-oxetan-2-ylmethyl]-1H-benzimidazole-6-carboxylate]: at human GLP-1R [1], the EC50 came out at 4.7 nM and the Emax is 78%. At human GLP-1R [2], this compound showed an EC50 of 110 nM and a maximal effect (Emax) of 93%.

In the case of `N#Cc1ccc(COc2ncccc2C2CCN(Cc3nc4ccc(C(=O)O)cc4n3C[C@@H]3CCCO3)CC2)c(F)c1` [Example 13, 2-[(4-{2-[(4-cyano-2-fluorobenzyl)oxy]pyridin-3-yl}piperidin-1-yl)methyl]-1-[(2S)-tetrahydrofuran-2-ylmethyl]-1H-benzimidazole-6-carboxylic acid, trifluoroacetate salt], at human GLP-1R [1], the EC50 was 6 nM and the Emax stood at 80%. On human GLP-1R [2], this compound gave an EC50 of 270 nM and an Emax of 91%.

For `O=C(O)c1ccc2nc(CN3CCC(c4cccnc4OCc4ccc(Cl)cc4F)CC3)n(CCN3CCOC3=O)c2c1` [Example 14, 2-[(4-{2-[(4-chloro-2-fluorobenzyl)oxy]pyridin-3-yl}piperidin-1-yl)methyl]-1-[2-(2-oxo-1,3-oxazolidin-3-yl)ethyl]-1H-benzimidazole-6-carboxylic acid, trifluoroacetate salt], the EC50 turned out to be 14 nM at human GLP-1R [1] and 540 nM at human GLP-1R [2]. For the same compound, the Emax on human GLP-1R [1] stood at 77%; on human GLP-1R [2] it was 120%.

On human GLP-1R [1], `CCn1cncc1Cn1c(CN2CCC(c3cccnc3OCc3ccc(Cl)cc3F)CC2)nc2ccc(C(=O)O)nc21` [Example 15, 2-[(4-{2-[(4-chloro-2-fluorobenzyl)oxy]pyridin-3-yl}piperidin-1-yl)methyl]-3-[(1-ethyl-1H-imidazol-5-yl)methyl]-3H-imidazo[4,5-b]pyridine-5-carboxylic acid, trifluoroacetate salt] had an EC50 of 0.96 nM and a maximal response (Emax) of 81%. Moreover, at human GLP-1R [2], the EC50 came to 21 nM and the Emax was determined as 91%.

At human GLP-1R [1], `CCn1cncc1Cn1c(CN2CCC(c3cccnc3OCc3ccc(C#N)cc3F)CC2)nc2ccc(C(=O)O)cc21` [Example 16, 2-[(4-{2-[(4-cyano-2-fluorobenzyl)oxy]pyridin-3-yl}piperidin-1-yl)methyl]-1-[(1-ethyl-1H-imidazol-5-yl)methyl]-1H-benzimidazole-6-carboxylic acid, trifluoroacetate salt] returned an EC50 of 0.99 nM and an Emax of 87%. At human GLP-1R [2], this compound showed an EC50 of 18 nM and an Emax of 130%.

For the compound `CCn1nncc1Cn1c(CN2CCC(c3cccnc3OCc3ccc(C#N)cc3F)CC2)nc2ccc(C(=O)O)cc21` [Example 17, 2-[(4-{2-[(4-cyano-2-fluorobenzyl)oxy]pyridin-3-yl}piperidin-1-yl)methyl]-1-[(1-ethyl-1H-1,2,3-triazol-5-yl)methyl]-1H-benzimidazole-6-carboxylic acid, trifluoroacetate salt], at human GLP-1R [1], the EC50 was determined as 6 nM and the Emax is 86%. On human GLP-1R [2], this compound had an EC50 of 150 nM and an Emax of 91%.

On human GLP-1R [1], `O=C(O)c1ccc2nc(CN3CCC(c4nccnc4OCc4ccc(Cl)cc4F)CC3)n(C[C@@H]3CCO3)c2c1` [Example 19, Ammonium 2-[(4-{3-[(4-chloro-2-fluorobenzyl)oxy]pyrazin-2-yl}piperidin-1-yl)methyl]-1-[(2S)-oxetan-2-ylmethyl]-1H-benzimidazole-6-carboxylate] yielded an EC50 of 5.3 nM and an Emax of 90%. Besides, on human GLP-1R [2], the EC50 came to 42 nM and the Emax amounted to 94%.

Consider `CCn1cncc1Cn1c(CN2CCC(c3nccnc3OCc3ccc(Cl)cc3F)CC2)nc2ccc(C(=O)O)cc21` [Example 20, 2-[(4-{3-[(4-chloro-2-fluorobenzyl)oxy]pyrazin-2-yl}piperidin-1-yl)methyl]-1-[(1-ethyl-1H-imidazol-5-yl)methyl]-1H-benzimidazole-6-carboxylic acid, trifluoroacetate salt], for which the EC50 on human GLP-1R [1] was found to be 0.34 nM; at human GLP-1R [2], 6.1 nM. Besides, the Emax at human GLP-1R [1] was found to be 80%; on human GLP-1R [2], 91%.

On human GLP-1R [1], `O=C(O)c1ccc2nc(CN3CCC(c4nccnc4OCc4ccc(Cl)cc4F)CC3)n(Cc3cocn3)c2c1` [Example 21, 2-[(4-{3-[(4-chloro-2-fluorobenzyl)oxy]pyrazin-2-yl}piperidin-1-yl)methyl]-1-(1,3-oxazol-4-ylmethyl)-1H-benzimidazole-6-carboxylic acid, trifluoroacetate salt] came in with an EC50 of 14 nM and an Emax of 73%. At human GLP-1R [2], this compound registered an EC50 of 370 nM and an Emax of 91%.

As to `O=C(O)c1ccc2nc(CN3CCC(c4nccnc4OCc4ccc(Cl)cc4F)CC3)n(Cc3ncco3)c2c1` [Example 22, 2-[(4-{3-[(4-chloro-2-fluorobenzyl)oxy]pyrazin-2-yl}piperidin-1-yl)methyl]-1-(1,3-oxazol-2-ylmethyl)-1H-benzimidazole-6-carboxylic acid, trifluoroacetate salt], at human GLP-1R [1], the EC50 stood at 2.8 nM and the Emax amounted to 85%. At human GLP-1R [2], a half-maximal response (EC50) required 23 nM and the Emax is 82%.

Consider `COCCn1c(CN2CCC(c3nccnc3OCc3ccc(Cl)cc3F)CC2)nc2ccc(C(=O)O)cc21` [Example 23, 2-[(4-{3-[(4-chloro-2-fluorobenzyl)oxy]pyrazin-2-yl}piperidin-1-yl)methyl]-1-(2-methoxyethyl)-1H-benzimidazole-6-carboxylic acid, hydrochloride salt], for which, at human GLP-1R [1], the EC50 worked out at 41 nM and the Emax was 89%. On human GLP-1R [2], this compound displayed an EC50 of 450 nM and a maximal effect (Emax) of 94%.

Consider `O=C(O)c1ccc2nc(CN3CCC(c4nccnc4OCc4ccc(Cl)cc4F)CC3)n(Cc3cnco3)c2c1` [Example 24, 2-[(4-{3-[(4-chloro-2-fluorobenzyl)oxy]pyrazin-2-yl}piperidin-1-yl)methyl]-1-(1,3-oxazol-5-ylmethyl)-1H-benzimidazole-6-carboxylic acid, trifluoroacetate salt], for which the EC50 at human GLP-1R [1] amounted to 2 nM; on human GLP-1R [2], 33 nM. In addition, the Emax on human GLP-1R [1] is 76%; on human GLP-1R [2] it was 89%.

With `N#Cc1ccc(COc2nccnc2C2CCN(Cc3nc4ccc(C(=O)O)cc4n3Cc3ncco3)CC2)c(F)c1` [Example 25, 2-[(4-{3-[(4-cyano-2-fluorobenzyl)oxy]pyrazin-2-yl}piperidin-1-yl)methyl]-1-(1,3-oxazol-2-ylmethyl)-1H-benzimidazole-6-carboxylic acid, trifluoroacetate salt], the figures for the EC50 on human GLP-1R [1] and on human GLP-1R [2] were 6.3 nM and 73 nM, respectively. Also, the values for the Emax at human GLP-1R [1] and on human GLP-1R [2] were 80% and 91%, respectively.
